Data as given in PubChem BioAssay AID1963827 (Molecular Pharmacology Branch, DTP, NCI, 2024).

Test system: 994946-033-R-J1-PDC complex spheroid viability
Experiment: Anticancer human tumor 994946-033-R-J1-PDC patient-derived melanoma cell line growth inhibition [POLQ]
Conditions: for IC50: curve of first compound; for viability, T/C: stronger effect = lower value; active means viability on the fitted dose curve at most 10% of control; inactive means the rest
Outline: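 Growth inhibition in 3D: complex spheroids (tumor PDC, HUVEC, MSC) treated with POLQ inhibitor combinations; where Cmax unknown, highest tested concentration 10 microM, except SN-38 at 1 microM.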

[1] = second compound 0.0316 µM, first compound 0.0316 µM
[2] = second compound 0.0316 µM, first compound 0.1 µM
[3] = second compound 0.0316 µM, first compound 0.316 µM
[4] = second compound 0.0316 µM, first compound 1 µM
[5] = second compound 0.0316 µM, first compound 3.16 µM
[6] = second compound 0.0316 µM, first compound 10 µM
[7] = second compound 0.1 µM, first compound 0.0316 µM
[8] = second compound 0.1 µM, first compound 0.1 µM
[9] = second compound 0.1 µM, first compound 0.316 µM
[10] = second compound 0.1 µM, first compound 1 µM
[11] = second compound 0.1 µM, first compound 3.16 µM
[12] = second compound 0.1 µM, first compound 10 µM
[13] = second compound 0.316 µM, first compound 0.0316 µM
[14] = second compound 0.316 µM, first compound 0.1 µM
[15] = second compound 0.316 µM, first compound 0.316 µM
[16] = second compound 0.316 µM, first compound 1 µM
[17] = second compound 0.316 µM, first compound 3.16 µM
[18] = second compound 0.316 µM, first compound 10 µM
[19] = second compound 1 µM, first compound 0.0316 µM
[20] = second compound 1 µM, first compound 0.1 µM
[21] = second compound 1 µM, first compound 0.316 µM
[22] = second compound 1 µM, first compound 1 µM
[23] = second compound 1 µM, first compound 3.16 µM
[24] = second compound 1 µM, first compound 10 µM
[25] = second compound 3.16 µM, first compound 0.0316 µM
[26] = second compound 3.16 µM, first compound 0.1 µM
[27] = second compound 3.16 µM, first compound 0.316 µM
[28] = second compound 3.16 µM, first compound 1 µM
[29] = second compound 3.16 µM, first compound 3.16 µM
[30] = second compound 3.16 µM, first compound 10 µM
[31] = second compound 10 µM, first compound 0.0316 µM
[32] = second compound 10 µM, first compound 0.1 µM
[33] = second compound 10 µM, first compound 0.316 µM
[34] = second compound 10 µM, first compound 1 µM
[35] = second compound 10 µM, first compound 3.16 µM
[36] = second compound 10 µM, first compound 10 µM
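Further: spheroids exposed to drugs for 7 days.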
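Wherever viability, T/C is given: 100% = DMSO vehicle treated spheroids.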

C#Cc1c(F)ccc2cc(O)cc(-c3ncc4c(N5CC6CCC(C5)N6)nc(OCC56CCCN5CC(F)C6)nc4c3F)c12 (stereo not given) + Cc1cccc(N(C)C(=O)C2C(O)CCN2c2nc(C)cc(C(F)(F)F)c2C#N)c1
5.27 µM: IC50 (second compound 1 µM)
5.05 µM: IC50 (second compound 0.0316 µM)
inactive: viability, T/C [1] 97.6% | viability, T/C [2] 103% | viability, T/C [3] 101% | viability, T/C [4] 93.8% | viability, T/C [5] 76.5% | viability, T/C [6] 12% | viability, T/C [7] 77% | viability, T/C [8] 112% | viability, T/C [9] 101% | viability, T/C [10] 106% | viability, T/C [11] 103% | viability, T/C [12] 30.7% | viability, T/C [13] 119% | viability, T/C [14] 102% | viability, T/C [15] 114% | viability, T/C [16] 82% | viability, T/C [17] 64.7% | viability, T/C [18] 18.1% | viability, T/C [19] 121% | viability, T/C [20] 99.5% | viability, T/C [21] 105% | viability, T/C [22] 107% | viability, T/C [23] 82.7% | viability, T/C [25] 106% | viability, T/C [26] 95.3% | viability, T/C [27] 79.1% | viability, T/C [28] 82.8% | viability, T/C [29] 78.3% | viability, T/C [31] 111% | viability, T/C [32] 104% | viability, T/C [33] 97.7% | viability, T/C [34] 95.9% | viability, T/C [35] 114%
4.78 µM: IC50 (second compound 3.16 µM)
active: viability, T/C [24] 9.05% | viability, T/C [30] 5.59% | viability, T/C [36] 4.03%
4.35 µM: IC50 (second compound 0.316 µM)
5.91 µM: IC50 (second compound 10 µM)
7.26 µM: IC50 (second compound 0.1 µM)

CC1COCCN1c1cc(C2(O)CC3CCC(C2)O3)c2cnn(-c3ccn[nH]3)c2n1 (stereo not given) + Cc1cccc(N(C)C(=O)C2C(O)CCN2c2nc(C)cc(C(F)(F)F)c2C#N)c1
0.0333 µM: IC50 (second compound 3.16 µM)
active: viability, T/C [11] 12% | viability, T/C [12] 4% | viability, T/C [17] 12.7% | viability, T/C [18] 2.62% | viability, T/C [23] 12.5% | viability, T/C [24] 3.16% | viability, T/C [36] 5.05%
< 0.0316 µM: IC50 (second compound 0.0316 µM) | IC50 (second compound 0.316 µM) | IC50 (second compound 1 µM) | IC50 (second compound 10 µM)
inactive: viability, T/C [1] 49.5% | viability, T/C [2] 34.5% | viability, T/C [3] 14.3% | viability, T/C [4] 15.3% | viability, T/C [5] 14.6% | viability, T/C [6] 5.33% | viability, T/C [7] 52.7% | viability, T/C [8] 37% | viability, T/C [9] 18.8% | viability, T/C [10] 12.3% | viability, T/C [13] 46.8% | viability, T/C [14] 26.4% | viability, T/C [15] 14.6% | viability, T/C [16] 18.4% | viability, T/C [19] 42% | viability, T/C [20] 23.1% | viability, T/C [21] 20.9% | viability, T/C [22] 17% | viability, T/C [25] 51.6% | viability, T/C [26] 27.2% | viability, T/C [27] 23.2% | viability, T/C [28] 13.5% | viability, T/C [29] 12.7% | viability, T/C [30] 10.9% | viability, T/C [31] 47.1% | viability, T/C [32] 38.4% | viability, T/C [33] 18.7% | viability, T/C [34] 23% | viability, T/C [35] 9.14%
0.0379 µM: IC50 (second compound 0.1 µM)

COc1cc2cc(C(=O)CCC(=O)O)sc2cc1OC + Cc1cccc(N(C)C(=O)C2C(O)CCN2c2nc(C)cc(C(F)(F)F)c2C#N)c1
> 10 µM: IC50 (second compound 0.0316 µM) | IC50 (second compound 0.1 µM) | IC50 (second compound 0.316 µM) | IC50 (second compound 1 µM) | IC50 (second compound 3.16 µM) | IC50 (second compound 10 µM)
inactive: viability, T/C [1] 79.5% | viability, T/C [2] 96.4% | viability, T/C [3] 130% | viability, T/C [4] 74.9% | viability, T/C [5] 91% | viability, T/C [6] 82.3% | viability, T/C [7] 116% | viability, T/C [8] 91.4% | viability, T/C [9] 102% | viability, T/C [10] 88.5% | viability, T/C [11] 98.8% | viability, T/C [12] 92.8% | viability, T/C [13] 67.7% | viability, T/C [14] 96.1% | viability, T/C [15] 70.5% | viability, T/C [16] 88.2% | viability, T/C [17] 79.7% | viability, T/C [18] 84.3% | viability, T/C [19] 67.6% | viability, T/C [20] 86.9% | viability, T/C [21] 72.9% | viability, T/C [22] 103% | viability, T/C [23] 72.3% | viability, T/C [24] 80.9% | viability, T/C [25] 120% | viability, T/C [26] 93.4% | viability, T/C [27] 101% | viability, T/C [28] 94.4% | viability, T/C [29] 110% | viability, T/C [30] 94.1% | viability, T/C [31] 97.6% | viability, T/C [32] 94.4% | viability, T/C [33] 92.9% | viability, T/C [34] 86.3% | viability, T/C [35] 87.8% | viability, T/C [36] 76.7%

O=C(Nc1ccc(O)c(NS(=O)(=O)c2ccc(F)cc2)c1)c1ccc(-c2ccccc2)cc1 + Cc1cccc(N(C)C(=O)C2C(O)CCN2c2nc(C)cc(C(F)(F)F)c2C#N)c1
6.51 µM: IC50 (second compound 0.316 µM)
inactive: viability, T/C [1] 90.8% | viability, T/C [2] 98% | viability, T/C [3] 112% | viability, T/C [4] 126% | viability, T/C [5] 92.9% | viability, T/C [6] 47.3% | viability, T/C [7] 108% | viability, T/C [8] 87.9% | viability, T/C [9] 118% | viability, T/C [10] 65% | viability, T/C [11] 61.3% | viability, T/C [12] 39.4% | viability, T/C [13] 84.1% | viability, T/C [14] 109% | viability, T/C [15] 91.4% | viability, T/C [16] 121% | viability, T/C [17] 74.8% | viability, T/C [18] 35.2% | viability, T/C [19] 87.7% | viability, T/C [20] 95.4% | viability, T/C [21] 81.2% | viability, T/C [22] 105% | viability, T/C [23] 61.9% | viability, T/C [24] 37.9% | viability, T/C [25] 73.5% | viability, T/C [26] 59.4% | viability, T/C [27] 90.2% | viability, T/C [28] 73% | viability, T/C [29] 81.3% | viability, T/C [30] 28.3% | viability, T/C [31] 85.5% | viability, T/C [32] 81.3% | viability, T/C [33] 95.8% | viability, T/C [34] 81.3% | viability, T/C [35] 48.4% | viability, T/C [36] 26.8%
5.59 µM: IC50 (second compound 1 µM)
> 10 µM: IC50 (second compound 0.1 µM)
2.98 µM: IC50 (second compound 10 µM)
5.89 µM: IC50 (second compound 3.16 µM)
9.36 µM: IC50 (second compound 0.0316 µM)

COc1cccc2c1C(=O)c1c(O)c3c(c(O)c1C2=O)CC(O)(C(=O)CO)CC3OC1CC(N)C(O)C(C)O1 (stereo not given) + Nc1ccc(C#CCN(C(=O)Cc2ncc(C(F)(F)F)cc2C(F)(F)F)c2ccc(F)cc2)nn1
inactive: viability, T/C [1] 39.1% | viability, T/C [7] 47.5% | viability, T/C [8] 11.3% | viability, T/C [13] 38% | viability, T/C [14] 13.6% | viability, T/C [19] 47.9% | viability, T/C [20] 10% | viability, T/C [25] 32.4% | viability, T/C [26] 13.9% | viability, T/C [31] 35.3% | viability, T/C [32] 14.7%
active: viability, T/C [2] 8.96% | viability, T/C [3] 4.51% | viability, T/C [4] 0.95% | viability, T/C [5] 0.91% | viability, T/C [6] 1.45% | viability, T/C [9] 7.5% | viability, T/C [10] 1.92% | viability, T/C [11] 1.44% | viability, T/C [12] 1.04% | viability, T/C [15] 5.83% | viability, T/C [16] 0.57% | viability, T/C [17] 1.8% | viability, T/C [18] 1.29% | viability, T/C [21] 4.77% | viability, T/C [22] 0.51% | viability, T/C [23] 1.35% | viability, T/C [24] 0.99% | viability, T/C [27] 4.86% | viability, T/C [28] 1.22% | viability, T/C [29] 1.11% | viability, T/C [30] 1% | viability, T/C [33] 3.59% | viability, T/C [34] 1.41% | viability, T/C [35] 0.94% | viability, T/C [36] 1.07%
< 0.0316 µM: IC50 (second compound 0.0316 µM) | IC50 (second compound 0.1 µM) | IC50 (second compound 0.316 µM) | IC50 (second compound 1 µM) | IC50 (second compound 3.16 µM) | IC50 (second compound 10 µM)
